system: P. falciparum 3D7 growth, pLDH absorbance; test: P. falciparum 3D7 growth inhibition, dose response, strain 3D7 (AID 2305)

Structure (SMILES)	IC50 [nM]
Cc1ccoc1C(=O)Nc1ccc(-c2cccc(-c3nc4c(C)cccc4[nH]3)c2)cc1	730
CN1CCN(c2ncnc3ccc(NC(=O)Nc4ccc(Cl)c(Cl)c4)cc23)CC1	260
CCOc1ccc(-c2noc(-c3c[nH]c4ccccc4c3=O)n2)cc1	210
CC(Cc1ccc(OCCCCOc2ccccc2)cc1)NCCc1ccc(Oc2ccccc2)cc1 (stereo not drawn)	810
O=C(c1ccc([N+](=O)[O-])o1)N1CCC(c2cn(Cc3cccc(F)c3)c3ccccc23)CC1	640
CC(CN(C)C)Oc1ccc2[nH]c(-c3cccc(OCc4ccccc4)c3)nc2c1C#N (stereo not drawn)	410
Cc1[nH]c(C)c(-c2ccc(-c3ccccc3F)nc2)c(=O)c1Cl	250
Cc1ccc(NC(=O)c2ccc(CN3CCCN(CC4CCCCC4)CC3)cc2)cc1F	290
COc1cccc(CN2CCCN(Cc3cccc(NC(=O)c4ccc(Cl)c(Cl)c4)c3)CC2)c1	1460
COc1ccc(NC(=O)/C=C/c2ccccc2Cl)cc1OCCN1CCC(c2nc3ccccc3[nH]2)CC1	860
CS(=O)(=O)c1cccc(-c2cnc3[nH]cc(-c4ccc(C(=O)O)cc4)c3c2)c1	340
O=C(Nc1ccc(OC2CCN(Cc3ccsc3)C2)c(Cl)c1)c1cccs1 (stereo not drawn)	960
CCn1ccc2c(N3CCCS3(=O)=O)cc(C(=O)N[C@@H](Cc3ccccc3)[C@H](O)CNC(C)(C)CCCC(C)C)cc21	490
CC(=O)Nc1cccc(CNCc2ccc(-c3cnc(N4CCCC(c5ccccc5)C4)nc3)cc2)c1 (stereo not drawn)	1190
CCCNCc1ccc(-c2ccc(CN(CCOC)C(=O)[C@H]3CCCO3)cc2)nc1	750
COc1cc(C(=O)NC2CC(C)(C)N(C)C(C)(C)C2)ccc1-c1cc2cc(Cl)c(Cl)cc2[nH]1	1140
COCCN1CCN(Cc2ccc(-c3ccc(-c4nc5c(C)cccc5[nH]4)s3)cc2)CC1	860
COc1cc(NCC(O)CNc2cc(Cl)nc3ccccc23)nc2ccccc12 (stereo not drawn)	420
Cc1cc(Nc2ccc(Cl)cc2)n2nc(C(F)(F)F)nc2n1	120
O=c1cc(NCCCNCc2cc(C(F)(F)F)ccc2F)[nH]c2ccccc12	830
COc1cc(Nc2ccnc3cc(-c4ccccn4)ccc23)cc(OC)c1OC	910
O=C1Nc2cccc3c2C1(CCCCN1CC=C(c2c[nH]c4ncccc24)CC1)CCC3 (stereo not drawn)	400
O=C(NC1CCCCCC1)C1CCCN(C(=O)c2ccc(O)c(-c3ccc(Cl)c(Cl)c3)c2)C1 (stereo not drawn)	760

Structure (SMILES)	IC50 [nM]
O=S(=O)(NCCN1CCCC1)c1ccc(-c2cccc(CNC3Cc4ccccc4C3)c2)cc1F	1020
CCCn1c(SCC(=O)Nc2cc(C(F)(F)F)ccc2Cl)n[nH]c1=O	220
COc1ccc2ncc(Cl)c(CCN3C[C@H](CNCc4ccc5c(n4)NC(=O)CS5)[C@H](O)C3)c2n1	1000
O=C(NCc1cccc(F)c1)Nc1ccc(-c2cccc(-c3nc4ccccc4[nH]3)c2)cc1	890
Cc1cccc2[nH]c(-c3ccc(-c4ccc(CNCCNC(=O)c5ccnn5C)cc4)cc3)nc12	480
COc1cc(OC)cc(-c2nn(-c3ccc([N+](=O)[O-])cc3C#N)c(=S)n2Cc2ccco2)c1	580
CCC(Cc1ccccc1)c1cc(O)c(Cc2ccc(-c3ccccc3)cc2)c(=O)o1 (stereo not drawn)	970
COc1cccc(C(=O)NC(c2ccccc2OC)c2cc(Cl)c3cccnc3c2O)c1 (stereo not drawn)	1190
COc1cc2ccccc2cc1OCCCN1CCN(CC(c2ccc(F)cc2)N2CCN(C(C)C)CC2)CC1 (stereo not drawn)	750
CCCCN(CCCC)C(=NCCCCCCN=C(/N=C(/N)Nc1ccc(Cl)cc1)N(CCCC)CCCC)/N=C(/N)Nc1ccc(Cl)cc1	790
O=C(Nc1ccc(-c2cccc(-c3nc4ccc(F)cc4[nH]3)c2)cc1)c1ccncc1	720
CCN(CC)CCN(Cc1ccc(-c2ccc(C(F)(F)F)cc2)cc1)C(=O)Cn1nc(-c2ccc(C(F)(F)F)cc2)ccc1=O	800
CCOc1cc2ncnc(Nc3ccc(OCc4ccccc4F)c(Cl)c3)c2cc1OCC	600
N#Cc1ccc(OCCN(Cc2ccccc2C(F)(F)F)c2ccc(C#N)c(C(F)(F)F)c2)cc1	280
COC(=O)/C=C/C(=O)N[C@@H]1CC[C@@]2(O)[C@H]3Cc4ccc(O)c5c4[C@@]2(CCN3CC2CC2)[C@H]1O5	640
Cc1cccc(-c2cccc3c(NC(=O)N4CCc5cc6nccc(N7CCN8CCC[C@H]8C7)c6cc54)cccc23)n1	920
Cc1nc(NCCCn2ccnc2)cc(-c2cncc(-c3ccc(OC(F)(F)F)cc3)c2)n1	620
CCN(CC)CCN(Cc1ccc(-c2ccc(C(F)(F)F)cc2)cc1)C(=O)Cn1c(CCc2cccc(F)c2F)nc(=O)c2ccc(C)cc21	670
COc1ccc2c(NN=Cc3cccnc3)ccnc2c1	680
CC(Cc1ccc(NS(=O)(=O)c2ccc(CC(C)NCCc3cccc(Cl)c3)cc2)cc1)NCCc1cccc(Cl)c1 (stereo not drawn)	780
Cc1ccc(NC(=O)c2ccc3ncccc3c2)cc1OC1CCN(C(C)C)C1 (stereo not drawn)	990
O=C(CCC1CCCCC1)NCCNc1cccc2ccccc12	830
COc1cccc(NC(=O)c2nc(N3CCN(c4ccncc4)CC3)ccc2Cl)c1	920

Structure (SMILES)	IC50 [nM]
Cc1cc(C2CCN(CCCCNC(=O)c3ccc(-c4ccc(C#N)cc4)cc3)CC2)c(C)cc1OCCO	810
Cc1ccc(C2CCN(CCCCNC(=O)c3ccc(NC(=O)c4ccc(Cl)cc4)cc3)CC2)c(C)c1	840
Cc1cc2c(cc1C(F)(F)F)N(C(=O)Nc1cnc(OCCN(C)C)c(C(F)(F)F)c1)CC2	970
COc1ccc2nccc(N(C)CC3(O)CCN(CC(O)c4ccc5c(c4)NC(=O)CS5)CC3)c2n1 (stereo not drawn)	590
Cc1ccc(S(=O)(=O)n2cc(-c3ccnc(N)c3)c3cc(Br)cnc32)cc1	900
O=C(/C=C/c1ccc(Cl)c(Cl)c1)N1CCC(CN2CCC(c3c[nH]c4ncccc34)CC2)CC1	1090
C[C@@H]1CN(c2ccc3occ(C(=O)Nc4ccc(-c5ccncc5)c(Cl)c4)c3c2)C[C@H](C)N1C	850
Cc1cc(F)ccc1-c1nc(NCCCNCCc2ccccc2)nc2c1ccc(=O)n2-c1c(F)cccc1F	190
COc1ccc(-c2ccc(NC(=O)c3cccc(Cl)c3)cc2)cc1CN(C)CCO	710
O=C(NC1CCCCN(Cc2ccccc2O)C1)c1cccc(Cl)c1 (stereo not drawn)	1060
COC(=O)c1cccc(CNCc2cccc(-c3ccc(-c4nc5c(C)cccc5[nH]4)s3)c2)c1	210
Cc1ccc(-n2cc(CNCC3CCN(CCO)CC3)c(-c3ccc(F)cc3)n2)cc1	2000
Cc1ccc(-c2cc(C(=O)Nc3ccc(S(=O)(=O)N4CCCC(C)C4)cc3)[nH]n2)c(O)c1 (stereo not drawn)	280
O=C(NCC1CC1)C1CCN(C(c2ccccc2)c2ccc(Cl)c(Cl)c2)CC1 (stereo not drawn)	370
CC1CCCCN1Cc1cccc(-c2c[nH]c3nc(NC4CCCC4)ncc23)c1 (stereo not drawn)	1310
C#C[C@H]1O[C@@H](n2cnc3c(Nc4cc(Br)cc(C(F)(F)F)c4)ncnc32)[C@H](O)[C@@H]1O	1030
Nc1ncc(-c2cccc(OCc3ccccc3)c2)cc1-c1nnc2ccc(Cl)nn12	1430
Cc1cccc2[nH]c(-c3ccc(-c4cccc(NC(=O)c5cnn6cccnc56)c4)cc3)nc12	870
Oc1cc(Nc2ccnc3cc(I)ccc23)ccc1F	740
O=C(Nc1cc(F)cc(-c2cccnc2)c1)c1ccc2c(=O)n(Cc3ccccc3)cnc2c1	1330
COc1ccc2nccc(N3C[C@H]4C[C@@H]3CN4CCNCc3ccc4c(n3)NC(=O)CS4)c2n1	970
N=C1C=C(N)C(=O)c2ccccc21	1050
